Consider 3 compounds from US20070298111A1, “Fine Particle-Containing Composition and Manufacturing Method Therefor” (EISAI R&D MANAGEMENT CO., LTD., priority 2004, published 2007).

The conditions of data set [1]: pharmacopoeia term; cited from earlier work.
The nature of data set [2]: Solubility of glibenclamide in the presence of both α-CD and SDS. In kind it is physicochemical. The note with it: 3 days at room temperature. As for the experimental part: To an aqueous solution (4 mL) containing α-CD and SDS was added glibenclamide (20 mg), which was stirred for 3 days at room temperature. This solution was filtered using a Millex-HV filter (Millipore) with a pore size of 0.45 μm, and the glibenclamide concentration in the filtrate was measured by HPLC using a Unison UK-C18 column (Imtakt).

Each structure is given as a SMILES string.

Regarding `CC(=O)S[C@@H]1CC2=CC(=O)CC[C@]2(C)[C@H]2CC[C@@]3(C)[C@@H](CC[C@@]34CCC(=O)O4)[C@H]12` [spironolactone, 7α-acetylsulfanyl-3-oxo-17α-pregn-4-ene-21,17β-carbolactone], the Solubility in water entry in data set [1] was “practically insoluble in water”. For the compound `COc1ccc(Cl)cc1C(=O)NCCc1ccc(S(=O)(=O)NC(=O)NC2CCCCC2)cc1` [glibenclamide, 4-[2-(5-Chloro-2-methoxybenzoylamino)ethyl](N-cyclohexylcarbamoyl)benzene-sulfonaide], the “Solubility of glibenclamide relative to SDS concentration (FIG. 6)” value in data set [2] (α-CD added) is on record as “a bending point appeared indicating minimum solubility”; in data set [2] (α-CD concentration 0.0 mM), “solubility rose as the SDS concentration rose”. Moreover, the Solubility in water result in data set [1] is listed as “practically insoluble in water”. Take `Cc1cccc(Nc2ccccc2C(=O)O)c1C` [mefenamic acid, 2-(2,3-dimethylphenylamino)benzoic acid]: the Solubility in water result in data set [1] was “practically insoluble in water”.
